This is an account of results in ChEMBL document CHEMBL1148602, “Synthesis and biological evaluation of new pentaphyrin macrocycles for photodynamic therapy” (J Med Chem, 2006).

Format in all cases: functional, cell-based
Experiment [1] relates to HeLa. The experiment can be described thus: Cytotoxicity against human cervix adenocarcinomas HeLa cell line irradiated with white light at the fluence of 30 J/cm2. The following applies: light or radiation study.
The test system of experiment [2] is HeLa. Nature of the experiment: Internalization in cytoplasm in HeLa cells at 3 ug/ml for 24 hr by confocal microscopy after propidium iodide staining. The settings on record: Homo sapiens.
Experiment [3] deals with K562. The experiment can be described thus: Effect on apoptotic fragmentation in K562 cells at 3 ug/ml and irradiation at 8 mW/cm2 for 60 min. The following applies: Homo sapiens.
For a further experiment, the system named is IMR90 EIA. The experiment can be described thus: Activation of Caspase 3 and 7 in IMR90 EIA cells at 3 ug/ml and irradiation of 15 J/cm2 for 8 hrs. The settings on record: Homo sapiens.
Experiment [4] deals with IMR-90. The experiment can be described thus: Effect on apoptotic fragmentation in IMR90 E1A cells at 3 ug/ml and irradiation at 8 mW/cm2 for 60 min. The settings on record: Homo sapiens.
In experiment [5] the test system is K562. Nature of the experiment: Cytotoxicity against human chronic myelogenous leukemia K562 cell line irradiated with white light at the fluence of 30 J/cm2. The following applies: K562, light or radiation study.
The subject of experiment [6] is K562. The experiment can be described thus: Activation of Caspase 3 and 7 in K562 cells at 3 ug/ml and irradiation of 15 J/cm2 for 8 hrs. The settings on record: Homo sapiens.
The subject of experiment [7] is PANC-1. Nature of the experiment: Cytotoxicity against human pancreatic adenocarcinomas Panc1 cell line irradiated with white light at the fluence of 15 J/cm2. The settings on record: PANC-1, light or radiation study.
Experiment [8] relates to K562. Nature of the experiment: Cytotoxicity against human chronic myelogenous leukemia K562 cell line without light irradiation by MTT assay at 3-12 ug/ml.
In experiment [9] the test system is IMR-90. Nature of the experiment: Cytotoxicity against human transformed fibroblast IMR90 E1A cell line without light irradiation by MTT assay at 3-12 ug/ml.
The subject of experiment [10] is HeLa. Nature of the experiment: Cytotoxicity against human cervix adenocarcinomas HeLa cell line irradiated with white light at the fluence of 15 J/cm2. The settings on record: light or radiation study.
In experiment [11] the test system is K562. The experiment can be described thus: Cytotoxicity against human chronic myelogenous leukemia K562 cell line irradiated with white light at the fluence of 15 J/cm2. The following applies: K562, light or radiation study.
In experiment [12] the test system is IMR-90. Nature of the experiment: Cytotoxicity against human transformed fibroblast IMR90 E1A cell line irradiated with white light at the fluence of 30 J/cm2. The settings on record: IMR-90, light or radiation study.
The subject of experiment [13] is PANC-1. Nature of the experiment: Cytotoxicity against human pancreatic adenocarcinomas Panc1 cell line irradiated with white light at the fluence of 30 J/cm2. The settings on record: PANC-1, light or radiation study.
Experiment [14] concerns IMR-90. The experiment can be described thus: Cytotoxicity against human transformed fibroblast IMR90 E1A cell line irradiated with white light at the fluence of 15 J/cm2. The following applies: IMR-90, light or radiation study.

The structures appear in SMILES notation. Converted amounts (≈) assume the structure as drawn. The source made the active and inactive calls. The calls are words filed in the database; no cut-off is given here.

Turning to `CCC1=C(C)C2=NC/1=C\c1[nH]c(c(CC)c1CC)/C=c1\[nH]/c(c(C)c1CC)=C\C1=NC(C=C1)/C(c1ccccc1)=c1/cc/c([nH]1)=C/2` (stereo not given), the IC50 was 2.6 µg/mL (≈ 4.29 µM) in the experiment with HeLa [1]; 1.5 µg/mL (≈ 2.48 µM) in the experiment on K562 [5]; 9.7 µg/mL (≈ 16 µM) in the experiment with PANC-1 [7]; 4.8 µg/mL (≈ 7.92 µM) in the experiment on HeLa [10]; 2 µg/mL (≈ 3.3 µM) with K562 [11]; 2.3 µg/mL (≈ 3.8 µM) with IMR-90 [12]. In addition, the IC50 in the experiment with PANC-1 [13] turned out to be 3.9 µg/mL (≈ 6.44 µM); in the experiment on IMR-90 [14], 4 µg/mL (≈ 6.6 µM). The outcome in the experiment with HeLa [2], in the experiment on K562 [3], in the experiment on IMR90 EIA, with IMR-90 [4] and in the experiment on K562 [6] was Active. The Activity entry in the experiment on K562 [8] and with IMR-90 [9] was “Toxic” in each case.

In the case of `CCC1=C(C)C2=NC/1=C\c1[nH]c(c(CC)c1CC)/C=c1\[nH]/c(c(C)c1CC)=C\c1ccc([nH]1)/C(c1ccccc1)=c1/cc/c([nH]1)=C/2`, the IC50 in the experiment with HeLa [1] is 3.8 µg/mL (≈ 6.27 µM); in the experiment with K562 [5] it was 2.9 µg/mL (≈ 4.79 µM); in the experiment on PANC-1 [7] it was 9.8 µg/mL (≈ 16.2 µM); in the experiment with HeLa [10] it was 5.8 µg/mL (≈ 9.57 µM); in the experiment on K562 [11] it was 3.6 µg/mL (≈ 5.94 µM); with IMR-90 [12] it was 3.2 µg/mL (≈ 5.28 µM). Besides, the IC50 in the experiment on PANC-1 [13] was determined as 4.6 µg/mL (≈ 7.59 µM); with IMR-90 [14], 4.2 µg/mL (≈ 6.93 µM). The result in the experiment on HeLa [2], in the experiment with K562 [3], in the experiment with IMR90 EIA, in the experiment on IMR-90 [4] and with K562 [6] was Active. Besides, the Activity result with K562 [8] and with IMR-90 [9] was “Toxic” in each case.

Broadly, the IC50 is the midpoint of a concentration-inhibition curve.
